Measured values taken from US11064704B2, “Natural product formulations with improved residual insect repellent/deterrent activity” (University of Mississippi, priority 2016, dated 2021).

How the values were obtained:
Aedes aegypti females = conditions: literature values; cited from earlier work
An. quadrimaculatus = test: in vitro Klun and Debboun (K&D) biting deterrent bioassay; assay type: in vivo, Anopheles quadrimaculatus
Method: Experiments were conducted by using a six-celled in vitro Klun and Debboun (K&D) module bioassay system developed by Klun et al. (2005) for quantitative evaluation of biting deterrence. Briefly, the assay system consists of a six well reservoir with each of the 3×4 cm wells containing 6 mL of blood or feeding solution. As described by Ali et al. (2012), a feeding solution consisting of CPDA-1 and ATP was used instead of blood. Green fluorescent tracer dye (www.blacklightworld.com) was used to determine the feeding by the females. Carrot seed essential oil was initially tested to determine the biting deterrent activity. […] Essential oil and carotol were further tested against Ae. aegypti and An. quadrimaculatus in this bioassay. Treatments of carrot seed essential oil at 10 μg/cm^2 and carotol were tested at 10 and 5 μg/cm^2, whereas DEET (97% N,N-diethyl-meta-toluamide) (Sigma Aldrich, St. Louis, Mo.) at 25 nmol/cm^2 was used as positive control. All the treatments were freshly prepared in molecular biology grade 100% ethanol (Fisher Scientific Chemical Co. Fairlawn, N.J.) at the time of bioassay.
The temperature of the solution in the reservoirs was maintained at 37° C. by continuously passing warm water through the reservoir using a circulatory bath. The reservoirs were covered with a layer of collagen membrane (Devro, Sandy Run, S.C.). The test compounds were randomly applied to six 4×5 cm areas of organdy cloth and positioned over the membrane-covered CPDA-1+ATP solution with a Teflon® separator placed between the treated cloth and the six-celled module to prevent the contamination of the module. […] The number of mosquitoes biting through organdy treatments in each cell was recorded after a 3 minute exposure, and mosquitoes were prodded back into the cells to check the actual feeding. […] Proportion not biting (PNB) was calculated using the procedure described by Ali et al. (2012).

[1] = system: Anopheles quadrimaculatus mosquitoes; test: in vitro A&K (Ali and Khan) repellent bioassay; assay type: in vivo; conditions: compared with DEET
Text: The A&K (Ali and Khan) bioassay system is based on the concept that the mosquitoes are attracted to warm temperatures, and this system uses warm temperature to serve as stimulus for landing and feeding. The details of the A&K bioassay systems are given in Ali et al. (2017).
In summary, this in vitro system consisted of a 30×30×30 cm collapsible aluminum cage (Model 1450B, BioQuip Products, 2321 Gladwick Street, Rancho Dominguez, Calif. 90220, USA) with metal screens. On one panel of the cage, metal screen was replaced with a clear acrylic transparent sheet. […] The blood box had three sides covered with acrylic sheet while the front side was open to insert the feeding device. […] The sliding door served to contain the females inside the cage when the feeding device was pulled out for loading the treatment. This door was slid open when the feeding device was pushed in during the bioassay to expose the females to the treatment.
The feeding device had one 3×4 cm rectangular reservoir that contained the feeding solution. The feeding device was connected to the water circulator. The reservoir of the feeding device with feeding solution was covered with a chemical treated collagen sheet. To observe the landing and feeding of female mosquitoes, feeding solution in the reservoir was heated to match the human body temperature using a water circulator which was set at 37° C. The feeding solution had 3-4° C. higher temperature than the solid platform, and this increased temperature of the feeding solution became a better source of attraction and preference for the mosquitoes than the other parts of the feeding device.
The rectangular reservoir of the feeding device was filled with the CPDA 1+ATP solution having a few drops of green fluorescent traceable water-soluble dye to serve as a feeding source. A test was started when the 3×4 cm marked areas of collagen were treated with the desired chemical in a volume of 50 μL/[…]. The treated collagen sheet was then secured on the reservoir using a thin layer of high vacuum grease (Dow Corning Corporation, Midland, Mich. 48686). The feeding device was then pushed into the blood box and the sliding door was opened to expose females to the treatment.
Stock solutions were made in ethanol. All the dilutions were made in EtOH and applied in a volume of 50 μL covering […] of the collagen sheet. Minimum effective dosage (MED) values in this in vitro bioassay were determined using a method described by Katritzky et al. (2010).
The cage contained 200±10, 8-18 day old female mosquitoes. The number of mosquitoes landing and biting were recorded visually for 1 minute. Three or four cages were used at a time, and one treatment was evaluated in a single cage. The minimum dose at which 2 or less mosquitoes (i.e. less than or equal to 1% of 200 females in the cage) started feeding in 1 minute was the minimum effective dose (“MED”). Continuous exposure of the mosquitoes in the cage can result in reduced landing and biting, therefore, 3-4 cages were used and only one replication was completed for each chemical in a single cage. To ensure accuracy of the treatment, rectangular areas of (3×4 cm (12 cm^2) or 7.5×4 cm (30 cm^2) were marked on the collagen that matched the measurement of the rectangular liquid reservoirs. Treatments were applied in a volume of 50 μL (12 cm^2 area) or 107 μL (30 cm^2 area). Treated collagen sheets were secured on a feeding reservoir containing CPDA-1+ATP solution using a thin layer of grease (Dow Corning Corp, Midland, Mich.). The feeding device was pushed inside the blood box and the sliding door was […] to expose the females to the treatment.
To ensure the normal activity (≥10% landing), control treatment was repeated after every 5 replications, and the bioassay was stopped if the response was less than the control. The data is presented as MED values with the mean percentage biting (±SEM) in parenthesis. […]

Structure (SMILES)	MED values reported by Ali et al. (2012) and Katritzky et al. (2010) (Aedes aegypti females)	proportion not biting (PNB) (An. quadrimaculatus; 25 nmol/cm^2)	proportion not biting (PNB) (An. quadrimaculatus; 10 μg/cm^2)	biting deterrent activity (An. quadrimaculatus; compared with DEET)	repellent activity [1]
CCN(CC)C(=O)c1cccc(C)c1 [DEET, N,N-diethyl-meta-toluamide, reference compound]	9 μg/cm^2	–	–	–	–
CC1=CC[C@]2(C)CC[C@@H](C(C)C)[C@]2(O)CC1 [carotol]	–	0.72	0.78	comparable to DEET	comparable to DEET
